According to patent US10765654B2, “Methods and compounds for treating cancer” (University of Vermont and State Agricultural College, priority 2011, dated 2020):

Assays:
[1] = system: OG35 oligodendroglioma stem cells; assay: Cell cycle profile by propidium iodide staining and flow cytometry; assay type: cell-based, human; conditions: 0.25% GTA in SCM for 24 hours; OG35
Procedure: (§1) Cell cycle profiles were visualized by propidium iodide (PI) staining as previously described (Perez-Martinez & Jaworski (2005) J Neurosci 25:4917-29). OG35, OG33 and mouse neural stem cells were grown in stem cell medium (SCM; DMEM/F12, B27, 20 ng/ml ea bFGF & EGF) while the oligodendrocyte progenitor cell line, Oli-neu (Jung et al. (1995) Eur J Neurosci 7:1245-65) was grown in Sato's medium (DMEM supplemented with 100 μg/ml apotransferrin, 5 μg/ml insulin, 60 nM triiodothyronine, 30 nM sodium selenite, 100 μM putrescine, 1% horse serum, and 25 μg/ml G418). […] after 0.25% (v/v) GTA treatment, cells were trypsinized, recovered by centrifugation, re-suspended (10^6 cells/ml) in a low-salt PI solution ([…] polyethylene glycol PEG 8000, […], 180 U/ml RNase A, 0.1% Triton X-100, and 4 mM sodium citrate), and incubated at 37° C. for 20 minutes. After addition of an equal volume of high-salt PI solution ([…] polyethylene glycol PEG 8000, […], 180 U/ml RNase A, 0.1% Triton X-100, and 400 mM NaCl) and incubation at 4° C. for 1 hour, cell cycle profiles were recorded by flow cytometry (BD LSR 11 Flow Cytometer, BD Biosciences; Franklin Lakes, N.J.).

[2] = system: OG33 oligodendroglioma stem cells; assay: as above; assay type: cell-based, human; conditions: 0.25% GTA in SCM for 24 hours; OG33
Procedure: as §1

ASPA in OG33 cells = assay: Western blot of ASPA expression; assay type: cell-based, human; conditions: 0.25% GTA
Procedure: (§2) SDS-PAGE (25 μg protein from whole cell lysates) and western blotting were performed as previously described (Lluri et al. 2008 Exp Cell Res 314:11-24). Cytosol and nuclear fractions were isolated according to standard protocols. Antibodies: rabbit anti-mouse ASPA (2,000×), (Madhavarao et al. 2004 Comp Neurol 472:318-29) rabbit anti-human ASPA (5,000×; GTX1338; GeneTex, Irvine, Calif.), goat anti-human actin (1,000×, sc-1616, Santa Cruz Biotechnology, Santa Cruz, Calif.), rabbit anti-human GAPDH (5,000×, sc-25778, Santa Cruz Biotechnology, Santa Cruz, Calif.), mouse anti-human histone H1 (250×, sc-8030; Santa Cruz Biotechnology, Santa Cruz, Calif.). Species-specific HRP—(3,000×) conjugated secondary antibodies were obtained from Jackson ImmunoResearch (West Grove, Pa.). Immunocomplexes were visualized by enhanced chemiluminescence (PerkinElmer Life Sciences; Boston, Mass.) and densitometry performed using Quantity One software (Bio-Rad; Hercules, Calif.).
(§3) SDS-PAGE (25 μg protein from whole cell lysates) and western blotting were performed as previously described in Example 1.

ASPA in OG35 cells = assay: Western blot of ASPA expression; assay type: cell-based, human; conditions: 0.25% GTA
Procedure: as §2, §3

[3] = system: murine neural stem cells (NSCs); assay: Cell cycle profile by propidium iodide staining and flow cytometry; assay type: cell-based; conditions: 0.25% GTA in SCM for 24 hours
Procedure: as §1

[4] = system: Oli-Neu cells, an oligodendrocyte progenitor cell (OPC) line; assay: as above; assay type: cell-based, murine; conditions: 0.25% GTA for 24 hours; Sato's medium; compared with GSCs
Procedure: as §1

GBM12 GSCs = assay: Cell cycle profile of GBM-derived GSC spheres (flow cytometry); assay type: cell-based, human; conditions: 0.25% GTA in SCM for 24 hours; all GSCs except GBM8
Procedure: as §1
(§4) Flow cytometry was performed 24 hours after GTA treatment as described in prior examples herein.

GBM8 GSCs = assay: as above; assay type: cell-based, human; conditions: 0.25% GTA in SCM for 24 hrs
Procedure: as §1, §4

[5] = system: OG35 oligodendroglioma stem cells; assay: Growth dynamics, unbiased trypan blue exclusion based cytometry; assay type: cell-based, human; conditions: 0.25% GTA, 5 days of treatment
Procedure: (§5) Growth dynamics were assessed using unbiased trypan blue exclusion based cytometry. Cells were plated (at 10,000 cells per well of a 24-well plate) directly in the absence or presence of 0.25% GTA. After 1, 3, and 5 days of treatment, cells were typsinized, collected via centrifugation, and counted according to the manufacturer's instructions (Countess Automated Cell Counter; Invitrogen Life Technologies; Carlsbad, Calif.).

[6] = system: OG33 oligodendroglioma stem cells; assay: as above; assay type: cell-based, human; conditions: 0.25% GTA, 5 days of treatment
Procedure: as §5

For `CC(=O)OCC(COC(C)=O)OC(C)=O` [GTA, glyceryltriacetate], the Cell cycle arrest [1] was “induced cell cycle arrest”, the Cell cycle arrest [2] was “induced cell cycle arrest” and the “Expression of novel 26 kDa ASPA species (Western blot)” value (ASPA in OG33 cells) was “induced the expression of a novel 26 kDa species”. For the same compound, the “Expression of the putative 36 kDa ASPA protein (Western blot)” value (ASPA in OG33 cells) was “no effect”, the “ASPA expression (Western blot)” value (ASPA in OG35 cells) was “decreased ASPA expression” and the Cell cycle arrest [3] was “no effect”. For the same compound, the Cell cycle arrest [4] was “less effect”, the “Growth arrest (increased proportion of cells in G0/G1 and decreased proportion in S phase)” value (GBM12 GSCs) was “exerted growth arrest” and the Growth arrest (GBM8 GSCs) was “did not induce growth arrest”. For the same compound, the Cell number [5] was “significantly decreased cell number” and the Cell number [6] was “significantly decreased cell number”.
